From patent US8309593B2, “2-acylaminopropoanol-type glucosylceramide synthase inhibitors” (Genzyme Corporation, priority 2008, dated 2012)

test system: GM3; experiment: GM3 Elisa assay; format: cell-based; settings: 48 h, Table 1; B16-FO cells, 2 days with compound; read-out: IC50_uM_Mean
Experimental: B16-FO cells from ATCC (American Tissue Culture Collection) were grown in DMEM media (ATCC) with 10% Fetal Bovine Serum (Hyclone) and Pen/Step/Glutamine (Biowhittaker). 4000 cells per well were plated on collagen coated plates (BD) and allowed to attach for 6 hours in an incubator (37 degrees, 5% CO2). After 6 hours the compounds and controls were added to the wells, the plates mixed and returned to the incubator for 2 days. Day of assay the cells were fixed for 20 minutes with 1% formaldehyde and then washed with Tris Buffered Saline (TBS) 3 times, 150 μl of TBS was left in the wells and 50 μl of goat serum (Invitrogen) was added, the plates mixed and incubated for 1 hour at room temperature. The plates were flicked and the cells incubated with the monoclonal Antibody to GM3 (NeuAc) (Cosmo) for 45 minutes as room temperature. The plates were then washed 3 times with TBS, leaving 150 μl of TBS in the wells and Peroxidase AffinPure F (ab′) 2 frag Gt Anti-mouse IgM, μ Chain Specific (Jackson Immuno Research) was added in 50 μl, the plates mixed and incubated for 45 minutes at room temperature. The plates were washed 3 times with TBS, flicked and blotted and 100 μl of Quantablu (Pierce) was added to the wells and incubated for 1 hour then read on a Fluorometer at Ex 325 and Em 420. The data was then analyzed using standard programs.

Row | Structure (SMILES) | IC50
1 | COc1ccc(OCCC(=O)N[C@H](CN2CCCC2)[C@H](O)c2ccc3c(c2)OCCO3)cc1 [Compound 61, N-((1R,2R)-1-(2,3-dihydrobenzo[β][1,4]dioxin-6-yl)-1-hydroxy-3-(pyrrolidin-1-yl)propan-2-yl)-3-(4-methoxyphenoxy)propanamide] | ≤ 100 nM
2 | COc1cccc(CNC(=O)N[C@H](CN2CCCC2)[C@H](O)c2ccc3c(c2)OCCO3)c1 [Compound 80, 1-((1R,2R)-1-(2,3-dihydrobenzo[β][1,4]dioxin-6-yl)-1-hydroxy-3-(pyrrolidin-1-yl)propan-2-yl)-3-(3-methoxybenzyl)urea] | ≤ 100 nM
3 | O=C(CCCc1nc2ccccc2s1)N[C@H](CN1CCCC1)[C@H](O)c1ccc2c(c1)OCCO2 [Compound 101, 4-(benzo[d]thiazol-2-yl)-N-((1R,2R)-1-(2,3-dihydrobenzo[1,4]dioxin-6-yl)-1-hydroxy-3-(pyrrolidin-1-yl)propan-2-yl)butanamide] | ≤ 100 nM
4 | CC(C)(C)c1ccc(C(=O)CCCCCC(=O)N[C@H](CN2CCCC2)[C@H](O)c2ccc3c(c2)OCCO3)cc1 [Compound 160, 7-(4-tert-butylphenyl)-N((1R,2R)-1-(2,3-dihydrobenzo[β][1,4]dioxin-6-yl)-1-hydroxy-3-(pyrrolidin-1-yl)propan-2-yl)-7-oxoheptanamide] | 100 to 1000 nM
5 | CC(C)Oc1ccc(C(=O)CCC(=O)N[C@H](CN2CCCC2)[C@H](O)c2ccc3c(c2)OCCO3)cc1 [Compound 162, N-((1R,2R)-1-(2,3-dihydrobenzo[β][1,4]dioxin-6-yl)-1-hydroxy-3-(pyrrolidin-1-yl)propan-2-yl)-4-(4-isopropoxyphenyl)-4-oxobutanamide] | ≤ 100 nM
6 | O=C(CCC(=O)c1ccc(C(F)(F)F)cc1)N[C@H](CN1CCCC1)[C@H](O)c1ccc2c(c1)OCCO2 [Compound 176, N-((1R,2R)-1-(2,3-dihydrobenzo[β][1,4]dioxin-6-yl)-1-hydroxy-3-(pyrrolidin-1-yl)propan-2-yl)-4-oxo-4-(4-(trifluoromethyl)phenyl)butanamide (2S,3S)-2,3-dihydroxysuccinate] | ≤ 100 nM
7 | CCc1ccc(OCCC(=O)N[C@H](CN2CCCC2)[C@H](O)c2ccc3c(c2)OCCO3)cc1 [Compound 188, N-((1R,2R)-1-(2,3-dihydrobenzo[b][1,4]dioxin-6-yl)-1-hydroxy-3-(pyrrolidin-1-yl)propan-2-yl)-3-(4-ethylphenoxy)propanamide (2R,3R)-2,3-dihydroxysuccinate] | 100 to 1000 nM
8 | CCC(=O)c1ccc(OCCC(=O)N[C@H](CN2CCCC2)[C@H](O)c2ccc3c(c2)OCCO3)cc1 [Compound 189, N-((1R,2R)-1-(2,3-dihydrobenzo[b][1,4]dioxin-6-yl)-1-hydroxy-3-(pyrrolidin-1-yl)propan-2-yl)-3-(4-propionylphenoxy)propanamide (2R,3R)-2,3-dihydroxysuccinate] | 100 to 1000 nM

same assay, conditions: Table 3 (title: IC 50 Values); read-out: IC50_uM_Mean

Row | Structure (SMILES) | IC50
9 | CCNC[C@@H](NC(=O)CCCCCC(=O)c1ccc(OC)cc1)C(O)c1ccc2c(c1)OCCO2 (stereo partly drawn) [Compound 467] | 100 to 1000 nM
10 | O=C(Cc1ccc(OC(F)(F)F)cc1)N[C@H](CN1CCCC1)[C@H](O)c1ccc(Cl)s1 [Compound 492] | 3000 to 10000 nM
11 | CCCCCCCC(=O)N[C@H](CN1CC[C@@H](F)C1)[C@H](O)c1ccc2c(c1)OCCO2 [Compound 504] | 100 to 1000 nM
12 | CCCCCCCC(=O)N[C@H](CN1CC[C@H](F)C1)[C@H](O)c1ccc2c(c1)OCCO2 [Compound 510] | 3000 to 10000 nM
13 | CCCCCCCC(=O)N[C@H](CN1CC[C@@H](O)C1)[C@@H](O)c1ccc2c(c1)OCCO2 [Compound 512] | 1000 to 3000 nM
14 | CCCCCCCC(=O)N[C@H](CN1CC[C@H](O)C1)[C@@H](O)c1ccc2c(c1)OCCO2 [Compound 515] | ≤ 100 nM
15 | CCCCCCCC(=O)N[C@H](CN1CC2CC2C1)[C@@H](O)c1ccc2c(c1)OCCO2 (stereo partly drawn) [Compound 517] | 100 to 1000 nM
16 | COc1ccc(C(=O)CCOCCC(=O)N[C@H](CN2CC[C@@H](O)C2)[C@H](O)c2ccc3c(c2)OCCO3)cc1 [Compound 518] | 100 to 1000 nM
17 | COc1ccc(C(=O)CCCCCC(=O)N[C@H](CN2CCC[C@@H]2C)C(O)c2ccc3c(c2)OCCO3)cc1 (stereo partly drawn) [Compound 525] | ≤ 100 nM
18 | COc1ccc(OCCC(=O)N[C@H](CN2CCC[C@@H]2C)C(O)c2ccc3c(c2)OCCO3)cc1 (stereo partly drawn) [Compound 526] | 100 to 1000 nM
19 | CCCCCCCC(=O)N[C@H](CN1CCC[C@@H]1C)C(O)c1ccc2c(c1)OCCO2 (stereo partly drawn) [Compound 527] | 1000 to 3000 nM
20 | COc1ccc(OCCC(=O)N[C@H](CN2CCC[C@H]2C)C(O)c2ccc3c(c2)OCCO3)cc1 (stereo partly drawn) [Compound 528] | 1000 to 3000 nM
21 | COc1ccc(C(=O)CCCCCC(=O)N[C@H](CN2CCC[C@H]2C)C(O)c2ccc3c(c2)OCCO3)cc1 (stereo partly drawn) [Compound 529] | ≤ 100 nM
22 | CCCCCCCC(=O)N[C@H](CN1CCC[C@H]1C)C(O)c1ccc2c(c1)OCCO2 (stereo partly drawn) [Compound 530] | 3000 to 10000 nM
23 | COc1ccc(C(=O)CCCCCC(=O)NC(CN2CC[C@@H](F)C2)[C@H](O)c2ccc3c(c2)OCCO3)cc1 (stereo partly drawn) [Compound 531] | ≤ 100 nM
24 | COC[C@@H]1CCCN1C[C@@H](NC(=O)CCCCCC(=O)c1ccc(OC)cc1)C(O)c1ccc2c(c1)OCCO2 (stereo partly drawn) [Compound 533] | 100 to 1000 nM
25 | CCCCCCCC(=O)N[C@H](CN1CCC[C@H]1COC)C(O)c1ccc2c(c1)OCCO2 (stereo partly drawn) [Compound 534] | 3000 to 10000 nM
26 | COC[C@@H]1CCCN1C[C@@H](NC(=O)CCOc1ccc(OC)cc1)C(O)c1ccc2c(c1)OCCO2 (stereo partly drawn) [Compound 535] | 3000 to 10000 nM
27 | COc1ccc(C(=O)CCCCCC(=O)N[C@H](CN2CC3CC3C2)[C@@H](O)c2ccc3c(c2)OCCO3)cc1 (stereo partly drawn) [Compound 537] | ≤ 100 nM
28 | COC[C@H]1CCCN1C[C@@H](NC(=O)CCOc1ccc(OC)cc1)[C@@H](O)c1ccc2c(c1)OCCO2 [Compound 538] | 3000 to 10000 nM
29 | COC[C@H]1CCCN1C[C@@H](NC(=O)CCCCCC(=O)c1ccc(OC)cc1)[C@@H](O)c1ccc2c(c1)OCCO2 [Compound 539] | 3000 to 10000 nM
30 | CCCCCCCC(=O)N[C@H](CN1CCC[C@@H]1COC)[C@@H](O)c1ccc2c(c1)OCCO2 [Compound 540] | 3000 to 10000 nM

Row | Structure (SMILES) | IC50
31 | COc1ccc(C(=O)CCCCCC(=O)N[C@H](CN2[C@H](C)CC[C@@H]2C)[C@H](O)c2ccc3c(c2)OCCO3)cc1 [Compound 548] | 1000 to 3000 nM
32 | CCCCCCCC(=O)N[C@H](CN1[C@H](C)CC[C@@H]1C)[C@H](O)c1ccc2c(c1)OCCO2 [Compound 549] | 3000 to 10000 nM
33 | COc1ccc(OCCC(=O)N[C@H](CN2[C@H](C)CC[C@@H]2C)[C@H](O)c2ccc3c(c2)OCCO3)cc1 [Compound 550] | 3000 to 10000 nM
34 | COc1ccc(OCCC(=O)N[C@H](CN2CCCC2(C)C)[C@@H](O)c2ccc3c(c2)OCCO3)cc1 [Compound 551] | 3000 to 10000 nM
35 | COc1ccc(C(=O)CCCCCC(=O)N[C@H](CN2CCCC2(C)C)[C@@H](O)c2ccc3c(c2)OCCO3)cc1 [Compound 552] | 1000 to 3000 nM
36 | CCCCCCCC(=O)N[C@H](CN1CCCC1(C)C)[C@@H](O)c1ccc2c(c1)OCCO2 [Compound 553] | 3000 to 10000 nM
37 | O=C(CCCCS(=O)(=O)C1CCCCC1)N[C@H](CN1CCCC1)[C@@H](O)c1ccc2c(c1)OCCO2 [Compound 557] | 3000 to 10000 nM
38 | O=C(CCCCCC1CCOCC1)N[C@H](CN1CCCC1)[C@@H](O)c1ccc2c(c1)OCCO2 [Compound 559] | 100 to 1000 nM
39 | O=C(CCCCCC(=O)c1ccc(F)cc1)N[C@H](CN1CC[C@@H](F)C1)[C@@H](O)c1ccc2c(c1)OCCO2 [Compound 565] | ≤ 100 nM
40 | Cc1nccn1C[C@@H](NC(=O)CCCCCC(=O)c1ccc(F)cc1)[C@@H](O)c1ccc2c(c1)OCCO2 [Compound 569] | 3000 to 10000 nM
41 | O=C(CCCCS(=O)(=O)C1CCCCC1)N[C@H](CN1CC[C@@H](F)C1)[C@@H](O)c1ccc(OCc2ccccc2)cc1 [Compound 572] | 100 to 1000 nM
42 | O=C(CCCCCC1CCOCC1)N[C@H](CN1CC[C@@H](F)C1)[C@@H](O)c1cccc(OCc2ccccc2)c1 [Compound 574] | 100 to 1000 nM
43 | O=C(CCCCOC1CCOCC1)N[C@H](CN1CC[C@@H](F)C1)[C@@H](O)c1ccc(CCc2ccccc2)cc1 [Compound 575] | 100 to 1000 nM
44 | CCCCOc1ccc([C@H](O)[C@@H](CN2CC[C@@H](F)C2)NC(=O)CCCCCCCOC)cc1 [Compound 584] | 100 to 1000 nM
45 | CCCCOc1ccc([C@H](O)[C@@H](CN2CC[C@H](O)C2)NC(=O)CCCCCCCOC)cc1 [Compound 586] | ≤ 100 nM
46 | CCCCCCCC(=O)N[C@H](CN1CC(OCCC)C1)[C@H](O)c1ccc2c(c1)OCCO2 [Compound 596] | 3000 to 10000 nM
47 | COc1ccc(OCC[C@H](O)N[C@H](CN2C(C)CCCC2C)C(O)c2ccc3c(c2)OCCO3)cc1 (stereo partly drawn) [Compound 598] | 3000 to 10000 nM
48 | COc1ccc(C(=O)CCCCCC(=O)N[C@H](CN2C(C)CCC[C@H]2C)[C@@H](O)c2ccc3c(c2)OCCO3)cc1 (stereo partly drawn) [Compound 602] | 3000 to 10000 nM
49 | O=C(N[C@H](CN1CCCC1)[C@@H](O)c1ccc2c(c1)OCCO2)C1(C(F)(F)F)CCC1 [Compound 614] | 3000 to 10000 nM
50 | O=C(CC(F)(F)F)N[C@H](CN1CCCC1)[C@@H](O)c1ccc2c(c1)OCCO2 [Compound 624] | 3000 to 10000 nM
51 | O=C(CCCCCC(=O)c1ccc(F)cc1)N[C@H](CN1CCCC1)[C@@H](O)c1ccc2c(c1)OCCO2 [Compound 628] | ≤ 100 nM
